± gives the expanded uncertainty stated by the source.
Legend:
[1] = xn = mol fraction of the nth substance listed; settings: 101 kPa, Liquid
[2] = Liquid; for viscosity: 101 kPa; for mass density: 101.33 kPa, Pycnometric method

CCOCCO [2-ethoxyethan-1-ol] + NC=O
viscosity [mPa·s], [1]
Settings	x2 = 0	x2 = 0.0975	x2 = 0.2009	x2 = 0.2984	x2 = 0.4047	x2 = 0.5054	x2 = 0.6055	x2 = 0.7092	x2 = 0.8063	x2 = 0.9074
303.15 K	1.654 ± 0.025	1.996 ± 0.03	2.306 ± 0.035	2.58 ± 0.038	2.873 ± 0.043	3.162 ± 0.047	3.409 ± 0.051	3.509 ± 0.052	3.495 ± 0.052	3.306 ± 0.05
308.15 K	1.482 ± 0.023	1.79 ± 0.027	2.017 ± 0.03	2.24 ± 0.034	2.49 ± 0.037	2.735 ± 0.041	2.968 ± 0.044	3.043 ± 0.046	3.007 ± 0.045	2.867 ± 0.044
313.15 K	1.306 ± 0.02	1.564 ± 0.024	1.786 ± 0.027	1.986 ± 0.03	2.221 ± 0.034	2.466 ± 0.037	2.659 ± 0.04	2.718 ± 0.041	2.692 ± 0.041	2.583 ± 0.04
318.15 K	1.231 ± 0.019	1.437 ± 0.022	1.599 ± 0.025	1.751 ± 0.027	1.957 ± 0.03	2.154 ± 0.033	2.298 ± 0.035	2.363 ± 0.036	2.353 ± 0.036	2.202 ± 0.034
323.15 K	1.116 ± 0.018	1.281 ± 0.02	1.415 ± 0.022	1.533 ± 0.024	1.709 ± 0.026	1.891 ± 0.029	2.041 ± 0.031	2.1 ± 0.032	2.094 ± 0.032	1.954 ± 0.03

NC=O [formamide]
[2]
Settings	mass density [kg/m3]	viscosity [mPa·s]
303.15 K	1124.57 ± 0.94	2.877 ± 0.044
308.15 K	1120.19 ± 0.97	2.544 ± 0.039
313.15 K	1115.22 ± 0.98	2.356 ± 0.036
318.15 K	1110.95 ± 1	2.061 ± 0.032
323.15 K	1105.47 ± 1.1	1.835 ± 0.029

COCCO [2-methoxyethan-1-ol] + NC=O
[1], x2 = 0
Settings	viscosity [mPa·s]
303.15 K	1.421 ± 0.022
308.15 K	1.249 ± 0.02
313.15 K	1.173 ± 0.019
318.15 K	1.079 ± 0.017
323.15 K	0.9347 ± 0.015

NC=O [formamide] + COCCO
viscosity [mPa·s], [1]
Settings	x1 = 0.1785	x1 = 0.2723	x1 = 0.3849	x1 = 0.4862	x1 = 0.5726	x1 = 0.6651	x1 = 0.7492	x1 = 0.8363	x1 = 0.9138	x1 = 1
303.15 K	1.795 ± 0.027	1.993 ± 0.03	2.237 ± 0.034	2.47 ± 0.037	2.665 ± 0.04	2.849 ± 0.043	2.927 ± 0.044	2.968 ± 0.045	2.965 ± 0.045	2.877 ± 0.044
308.15 K	1.573 ± 0.024	1.749 ± 0.027	1.966 ± 0.03	2.158 ± 0.033	2.322 ± 0.035	2.504 ± 0.038	2.593 ± 0.039	2.614 ± 0.04	2.609 ± 0.04	2.544 ± 0.039
313.15 K	1.453 ± 0.023	1.623 ± 0.025	1.813 ± 0.028	1.988 ± 0.03	2.131 ± 0.033	2.264 ± 0.035	2.323 ± 0.036	2.361 ± 0.036	2.36 ± 0.036	2.356 ± 0.036
318.15 K	1.313 ± 0.021	1.46 ± 0.023	1.626 ± 0.025	1.769 ± 0.027	1.885 ± 0.029	1.988 ± 0.031	2.046 ± 0.032	2.07 ± 0.032	2.057 ± 0.032	2.061 ± 0.032
323.15 K	1.129 ± 0.018	1.27 ± 0.02	1.421 ± 0.022	1.566 ± 0.025	1.661 ± 0.026	1.75 ± 0.027	1.806 ± 0.028	1.842 ± 0.029	1.83 ± 0.029	1.835 ± 0.029

COCCO [2-methoxyethan-1-ol]
[2]
Settings	mass density [kg/m3]	viscosity [mPa·s]
303.15 K	955.72 ± 0.75	1.421 ± 0.022
308.15 K	951.11 ± 0.77	1.249 ± 0.02
313.15 K	946.27 ± 0.78	1.173 ± 0.019
318.15 K	941.64 ± 0.78	1.079 ± 0.017
323.15 K	936.88 ± 0.79	0.9347 ± 0.015

CCOCCO [2-ethoxyethan-1-ol]
[2]
Settings	mass density [kg/m3]	viscosity [mPa·s]
303.15 K	921.19 ± 0.76	1.654 ± 0.025
308.15 K	916.43 ± 0.77	1.482 ± 0.023
313.15 K	911.58 ± 0.72	1.306 ± 0.02
318.15 K	907.76 ± 0.7	1.231 ± 0.019
323.15 K	903.45 ± 0.73	1.116 ± 0.018

NC=O [formamide] + CCOCCO
[1], x1 = 1
Settings	viscosity [mPa·s]
303.15 K	2.877 ± 0.044
308.15 K	2.544 ± 0.039
313.15 K	2.356 ± 0.036
318.15 K	2.061 ± 0.032
323.15 K	1.835 ± 0.029

From the NIST ThermoML archive (doi:10.1016/j.tca.2012.03.001)
